From ChEMBL document CHEMBL1201862, “PubChem BioAssay data set” (2004)
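Each compound was tested at five concentrations against cells in 96-well plates for 48 hours. GI50 = concentration required for 50% inhibition of growth.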 Activity calls are given as the source filed them. No stated cut-off is given here; in the data, active = GI50 up to about 1.1 µM and inactive = higher.

How the values were obtained:
Test in all cases: NCI-60 cell line screen, 48 h
SNB-75 = test system: SNB-75
KM12 = test system: KM12
NCI-H460 = test system: NCI-H460
OVCAR-5 = test system: OVCAR-5
CCRF-CEM = test system: CCRF-CEM
ACHN = test system: ACHN
U-251 = test system: U-251
CAKI-1 = test system: CAKI-1
UACC-62 = test system: UACC-62
SK-MEL-5 = test system: SK-MEL-5
OVCAR-3 = test system: OVCAR-3
Malme-3M = test system: Malme-3M
NCI-H23 = test system: NCI-H23
SW-620 = test system: SW-620
RXF 393 = test system: RXF 393
HOP-62 = test system: HOP-62
NCI-H226 = test system: NCI-H226
SR = test system: SR

| Compound | GI50 (SNB-75) | GI50 (KM12) | GI50 (NCI-H460) | GI50 (OVCAR-5) | GI50 (CCRF-CEM) | GI50 (ACHN) | GI50 (U-251) | GI50 (CAKI-1) | GI50 (UACC-62) | GI50 (SK-MEL-5) | GI50 (OVCAR-3) | GI50 (Malme-3M) | GI50 (NCI-H23) | GI50 (SW-620) | GI50 (RXF 393) | GI50 (HOP-62) | GI50 (NCI-H226) | GI50 (SR) |
| --- | --- | --- | --- | --- | --- | --- | --- | --- | --- | --- | --- | --- | --- | --- | --- | --- | --- | --- |
| O=C(c1ccccc1)C(c1ccccc1)C1(O)C(=O)Nc2c(Cl)ccc(Cl)c21 (configuration not stated) | 16.8 µM (inactive) | 18.2 µM (inactive) | 14.3 µM (inactive) | 20.4 µM (inactive) | 12.2 µM (inactive) | 16.9 µM (inactive) | 25.8 µM (inactive) | 20.5 µM (inactive) | 15.6 µM (inactive) | 18.2 µM (inactive) | 17.4 µM (inactive) | 17.4 µM (inactive) | 16.3 µM (inactive) | 16.7 µM (inactive) | 19.5 µM (inactive) | 21.4 µM (inactive) |  |  |
| C/C(CN1C(=O)c2ccccc2C1=O)=N\NS(C)(=O)=O | > 100 µM (inactive) | > 100 µM (inactive) | > 100 µM (inactive) | > 100 µM (inactive) | > 100 µM (inactive) | > 100 µM (inactive) | > 100 µM (inactive) | > 100 µM (inactive) | > 100 µM (inactive) | > 100 µM (inactive) | > 100 µM (inactive) | > 100 µM (inactive) | > 100 µM (inactive) | > 100 µM (inactive) | > 100 µM (inactive) | > 100 µM (inactive) | > 100 µM (inactive) |  |
| COc1ccc([C@H]2CC(=O)N3CCCC3N2)cc1 (some centres not stated) | > 100 µM (inactive) | > 100 µM (inactive) | > 100 µM (inactive) | > 100 µM (inactive) | > 100 µM (inactive) | > 100 µM (inactive) | > 100 µM (inactive) | > 100 µM (inactive) | > 100 µM (inactive) | > 100 µM (inactive) |  | > 100 µM (inactive) | > 100 µM (inactive) | > 100 µM (inactive) | > 100 µM (inactive) | > 100 µM (inactive) | > 100 µM (inactive) | > 100 µM (inactive) |
| CC(C)(C)NN=C1C(C)(C)C(=NNC(C)(C)C)C1(C)C | > 100 µM (inactive) | > 100 µM (inactive) | > 100 µM (inactive) | > 100 µM (inactive) |  | > 100 µM (inactive) | > 100 µM (inactive) | > 100 µM (inactive) | > 100 µM (inactive) | > 100 µM (inactive) | > 100 µM (inactive) | > 100 µM (inactive) | > 100 µM (inactive) | > 100 µM (inactive) | > 100 µM (inactive) | > 100 µM (inactive) | > 100 µM (inactive) | > 100 µM (inactive) |
| COC1=CC(=O)C2C(C1=O)C(c1ccc(Cl)cc1)[C@@H]2C (some centres not stated) | 17.4 µM (inactive) | 47.2 µM (inactive) | 30.1 µM (inactive) | 30.3 µM (inactive) | 29.4 µM (inactive) | 17.3 µM (inactive) | 25.2 µM (inactive) | 37.8 µM (inactive) | 24.7 µM (inactive) | 19.5 µM (inactive) | 34.6 µM (inactive) | 23 µM (inactive) | 28.6 µM (inactive) | 27.4 µM (inactive) | 24.1 µM (inactive) | 39.1 µM (inactive) | 22.1 µM (inactive) |  |
| Brc1ccc2c(c1)C1(c3cc(Br)ccc3-2)c2cc(Br)ccc2-c2ccc(Br)cc21 |  | > 100 µM (inactive) | > 100 µM (inactive) | > 100 µM (inactive) | > 100 µM (inactive) | > 100 µM (inactive) | > 100 µM (inactive) | > 100 µM (inactive) | > 100 µM (inactive) |  | > 100 µM (inactive) | > 100 µM (inactive) | > 100 µM (inactive) | > 100 µM (inactive) | > 100 µM (inactive) | > 100 µM (inactive) | > 100 µM (inactive) | > 100 µM (inactive) |
| C=C(C)C1CCC2(C)CC1c1c(c(C)cc3c1[nH]c1ccccc13)O2 (configuration not stated) |  | > 25 µM (inactive) | > 25 µM (inactive) | > 25 µM (inactive) | 24.3 µM (inactive) | > 25 µM (inactive) | > 25 µM (inactive) |  | > 25 µM (inactive) | > 25 µM (inactive) | > 25 µM (inactive) | > 25 µM (inactive) |  | > 25 µM (inactive) |  | 19 µM (inactive) | 16.7 µM (inactive) | > 25 µM (inactive) |
| COc1ccc(/C=C\c2cc(OC)c(OC(C)=O)c(OC)c2)cc1 | 2.84 µM (inactive) | 5.06 µM (inactive) | 2.49 µM (inactive) | 28.7 µM (inactive) | 5.46 µM (inactive) | 27.9 µM (inactive) | 4.21 µM (inactive) | 25.1 µM (inactive) | 8.15 µM (inactive) | 5.55 µM (inactive) | 20.8 µM (inactive) | 19 µM (inactive) | 13.3 µM (inactive) | 11.1 µM (inactive) |  | 5.92 µM (inactive) | 27.4 µM (inactive) | 13.3 µM (inactive) |
| CC1CCC(O)C(C(O)CC2CC(=O)N(C)C(=O)C2)C1 (configuration not stated) | > 100 µM (inactive) | > 100 µM (inactive) | > 100 µM (inactive) | > 100 µM (inactive) | > 100 µM (inactive) | > 100 µM (inactive) | > 100 µM (inactive) | > 100 µM (inactive) | > 100 µM (inactive) |  | > 100 µM (inactive) | > 100 µM (inactive) | > 100 µM (inactive) | > 100 µM (inactive) | > 100 µM (inactive) | > 100 µM (inactive) | > 100 µM (inactive) | > 100 µM (inactive) |
| COC(=O)N1[C@H]2Cc3c(OC)c(C)c(OC)c(OC)c3[C@@H]1/C(=C\c1cc(OC)c(OC)c(C)c1OC)N(Cc1ccccc1)C2=O | 67.5 µM (inactive) | 27.4 µM (inactive) | 13.2 µM (inactive) | > 100 µM (inactive) | 28.6 µM (inactive) | 32.4 µM (inactive) | 27.9 µM (inactive) | 34.6 µM (inactive) | 56.9 µM (inactive) | 21.8 µM (inactive) | 32.7 µM (inactive) | 28.6 µM (inactive) | 75 µM (inactive) |  | > 100 µM (inactive) | 74.1 µM (inactive) | 0.23 µM (active) | 7.85 µM (inactive) |
| N#C/C(=C/c1cccc(Oc2ccccc2)c1)c1ccccc1 | > 100 µM (inactive) | > 100 µM (inactive) | > 100 µM (inactive) | 34.6 µM (inactive) | > 100 µM (inactive) | > 100 µM (inactive) | > 100 µM (inactive) | > 100 µM (inactive) | > 100 µM (inactive) | > 100 µM (inactive) |  | > 100 µM (inactive) | > 100 µM (inactive) | > 100 µM (inactive) |  |  | > 100 µM (inactive) | > 100 µM (inactive) |
| N/C(=N\N=C=C1C(=O)Nc2ccc(F)cc21)NO | 21.3 µM (inactive) | 41.4 µM (inactive) | 74.5 µM (inactive) |  | 98.2 µM (inactive) | 59.8 µM (inactive) | > 100 µM (inactive) | 28 µM (inactive) | 39.3 µM (inactive) | > 100 µM (inactive) | > 100 µM (inactive) | > 100 µM (inactive) | > 100 µM (inactive) | > 100 µM (inactive) | > 100 µM (inactive) | > 100 µM (inactive) |  | > 100 µM (inactive) |
| C[N+](C)=c1nc(N2CCc3ccccc3C2)ss1.[O-][Cl+3]([O-])([O-])[O-] | 83.6 µM (inactive) | > 100 µM (inactive) | > 100 µM (inactive) |  | 82.8 µM (inactive) | > 100 µM (inactive) | > 100 µM (inactive) | > 100 µM (inactive) | > 100 µM (inactive) | > 100 µM (inactive) | 82 µM (inactive) | > 100 µM (inactive) |  | > 100 µM (inactive) | 77.4 µM (inactive) | > 100 µM (inactive) | > 100 µM (inactive) | 54.5 µM (inactive) |
| Nc1ccc(C(=O)N/C(=C\c2cccc([N+](=O)[O-])c2)c2nc3c4c(ccc3[nH]2)C(=O)c2ccccc2C4=O)cc1 | 1.76 µM (inactive) |  | 21.3 µM (inactive) | > 100 µM (inactive) | 0.853 µM (active) |  | 14 µM (inactive) | 8.69 µM (inactive) | 53.3 µM (inactive) | 57.4 µM (inactive) | 12.7 µM (inactive) | > 100 µM (inactive) | 10.8 µM (inactive) | 73.5 µM (inactive) | 10.1 µM (inactive) | > 100 µM (inactive) |  |  |
| COC(=O)c1cc(Br)c(Br)n1C | > 100 µM (inactive) | > 100 µM (inactive) |  | > 100 µM (inactive) | > 100 µM (inactive) | > 100 µM (inactive) | > 100 µM (inactive) | > 100 µM (inactive) | > 100 µM (inactive) | > 100 µM (inactive) | > 100 µM (inactive) | > 100 µM (inactive) | > 100 µM (inactive) | > 100 µM (inactive) | > 100 µM (inactive) | > 100 µM (inactive) | > 100 µM (inactive) | 33.9 µM (inactive) |
| CCOC(=O)C1Oc2ccc([N+](=O)[O-])c3c2C1(O)CCC3 (configuration not stated) | > 100 µM (inactive) | > 100 µM (inactive) | 33.4 µM (inactive) | > 100 µM (inactive) | > 100 µM (inactive) | > 100 µM (inactive) | > 100 µM (inactive) |  | > 100 µM (inactive) | > 100 µM (inactive) | > 100 µM (inactive) | > 100 µM (inactive) | > 100 µM (inactive) | > 100 µM (inactive) | > 100 µM (inactive) | > 100 µM (inactive) | > 100 µM (inactive) | > 100 µM (inactive) |
| CC1=C(C#N)C(N)=C2C(C)=C(C#N)C(N)=C12 | > 100 µM (inactive) | > 100 µM (inactive) | > 100 µM (inactive) | > 100 µM (inactive) | > 100 µM (inactive) |  | > 100 µM (inactive) | > 100 µM (inactive) | > 100 µM (inactive) | > 100 µM (inactive) | > 100 µM (inactive) | > 100 µM (inactive) | > 100 µM (inactive) | > 100 µM (inactive) | > 100 µM (inactive) | > 100 µM (inactive) | > 100 µM (inactive) | > 100 µM (inactive) |
